Reference: PMC10580313, “A Chemoproteomic Approach to Elucidate the Mechanism of Action of 6-Azasteroids with Unique Activity in Mycobacteria” (ACS Infectious Diseases, 2023)

How the values were obtained:
Mm (BAA-535) = assay: BDQ potentiation MIC99 microbroth assay, Mm; type: cell-based, Mycobacterium marinum; conditions: for Fold ∆ of BDQ MIC, Mm: 6-azasteroid fixed at 20 μM, relative to BDQ MIC99 without azasteroid
Mtb = assay: MIC of 6-azasteroid alone, Mtb; type: cell-based, Mycobacterium tuberculosis; conditions: (MIC99 reported as micromolar)
THP-1 cells = assay: Cytotoxicity assay (Alamar Blue), THP-1; type: cell-based; conditions: 72 h, read-out: Mammalian Cell IC50, THP1
HepG2 cells = assay: Cytotoxicity assay (Alamar Blue), HepG2; type: cell-based, human; conditions: 72 h, read-out: Mammalian Cell IC50, HepG2
Mtb (CDC1551) = assay: BDQ potentiation MIC99 microbroth assay, Mtb; type: cell-based, Mycobacterium tuberculosis; conditions: 6-azasteroid fixed at 20 μM; relative to BDQ MIC99 without azasteroid
Mm = assay: MIC of 6-azasteroid alone, Mm; type: cell-based, Mycobacterium marinum; conditions: (micromolar)
[1] = molecular target: T1, recombinant Mtb 3β-Hsd (Rv1106c) (Mycobacterium tuberculosis, UniProt P9WQP7); type: biochemical; conditions: 50 μM 6-azasteroid
T1 construct: made in house
T1 sequence (P9WQP7 whole entry): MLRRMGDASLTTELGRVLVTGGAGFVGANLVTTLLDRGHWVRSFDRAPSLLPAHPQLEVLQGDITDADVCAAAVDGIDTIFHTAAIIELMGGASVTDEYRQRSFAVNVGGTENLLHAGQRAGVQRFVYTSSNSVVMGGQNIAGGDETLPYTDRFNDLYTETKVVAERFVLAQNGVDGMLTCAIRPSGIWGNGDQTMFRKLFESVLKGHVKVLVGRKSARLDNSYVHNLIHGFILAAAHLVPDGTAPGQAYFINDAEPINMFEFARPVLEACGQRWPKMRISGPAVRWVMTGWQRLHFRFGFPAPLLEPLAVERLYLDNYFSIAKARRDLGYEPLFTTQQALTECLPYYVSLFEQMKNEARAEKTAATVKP

SMILES | Mtb MIC Alone (Mtb) [µM] | IC50 (THP-1 cells) [µM] | IC50 (HepG2 cells) [µM] | Fold ∆ of BDQ MIC, Mtb (Mtb (CDC1551)) | also measured
CCCN1CC2C3CCC(C(=O)NC(c4ccc(OC(F)F)cc4)c4ccc(OC(F)F)cc4)[C@@]3(C)CCC2[C@@]2(C)CCC(=O)CC12 (stereo partly drawn) [compound 24] | 60 | > 100 | – | – | Fold ∆ of BDQ MIC, Mm (Mm (BAA-535)): 25.5 fold
CC(=O)N1CC2C3CCC(C(=O)NC(c4ccc(OC(F)(F)F)cc4)c4ccc(OC(F)(F)F)cc4)[C@@]3(C)CCC2[C@@]2(C)CCC(=O)CC12 (stereo partly drawn) [compound 31] | > 80 | – | > 100 | 1 fold | Fold ∆ of BDQ MIC, Mm (Mm (BAA-535)): 3.5 fold
C[C@]12CCC(O)CC1NCC1C2CC[C@]2(C)C(C(=O)NC(c3ccc(OC(F)(F)F)cc3)c3ccc(OC(F)(F)F)cc3)CCC12 (stereo partly drawn) [compound 32] | 5 | – | 5.75 | – | –
CC(C)(C)c1ccc(C(F)(F)F)cc1NC(=O)C1CCC2C3CNC4=CC(=O)CC[C@]4(C)C3CC[C@]12C (stereo partly drawn) [compound 5] | > 20 | – | 60 | 2 fold | –
CC12CCC(=O)C=C1CCC1C2CCC2(C)C(C(=O)NC(c3ccc(OC(F)(F)F)cc3)c3ccc(OC(F)(F)F)cc3)CCC12 (stereo not drawn) [compound 33] | > 80 | – | > 100 | 1 fold | –
C[C@]12CCC(=O)CC1NCC1C2CC[C@]2(C)C(C(=O)NC(c3ccc(F)cc3)c3ccc(F)cc3)CCC12 (stereo partly drawn) [compound 14] | 80 | – | 14.2 | – | –
C[C@]12CCC(=O)CC1NCC1C2CC[C@]2(C)C(C(=O)NC(c3ccc(OC(F)(F)F)cc3)c3ccc(OC(F)(F)F)cc3)CCC12 (stereo partly drawn) [compound 29] | 5 | 4.5 | – | – | –
C[C@]12CCC3C(CNC4=CC(=O)CC[C@@]43C)C1CCC2C(=O)Nc1ccc(C(=O)c2ccccc2)cc1 (stereo partly drawn) [compound 43] | – | – | > 100 | 8 fold | MIC Alone (Mm) (Mm): > 20 µM; Fold ∆ of BDQ MIC, Mm (Mm (BAA-535)): 2 fold
C[C@]12CCC(=O)CC1NCC1C2CC[C@]2(C)C(C(=O)NC(c3ccc(F)cc3)c3ccc(OC(F)(F)F)cc3)CCC12 (stereo partly drawn) [compound 20] | > 20 | – | 5.7 | > 32 fold | –
C[C@]12CCC(=O)CC1NCC1C2CC[C@]2(C)C(C(=O)NC(c3ccc(C(F)(F)F)cc3)c3ccc(C(F)(F)F)cc3)CCC12 (stereo partly drawn) [compound 26] | 7.5 | – | 6 | – | –
C[C@]12CCC3C(CNC4=CC(=O)CC[C@@]43C)C1CCC2C(=O)NC(c1ccc(OC(F)F)cc1)c1ccc(OC(F)F)cc1 (stereo partly drawn) [compound 22] | > 20 | 25.7 | – | > 32 fold | –
CCCN1CC2C3CCC(C(=O)NC(c4ccc(OC(F)(F)F)cc4)c4ccc(OC(F)(F)F)cc4)[C@@]3(C)CCC2[C@@]2(C)CCC(=O)C=C12 (stereo partly drawn) [compound 36] | > 40 | > 100 | – | – | Fold ∆ of BDQ MIC, Mm (Mm (BAA-535)): 1.6 fold
CC(C)(C)c1ccc(C(F)(F)F)cc1NC(=O)C1CCC2C3CNC4CC(=O)CC[C@]4(C)C3CC[C@]12C (stereo partly drawn) [compound 7] | 30 | – | 12.1 | – | –
COc1nc2ccc(Br)cc2cc1[C@@H](c1ccccc1)[C@@](O)(CCN(C)C)c1cccc2ccccc12 [bedaquiline, reference compound] | – | – | – | – | MIC (Mm (BAA-535); Mycobacterium marinum, BAA535, read-out: Mm bedaquiline minimal inhibitory concentration, alone): 0.085 µM
C[C@]12CCC3C(CNC4=CC(=O)CC[C@@]43C)C1CCC2C(=O)NC(c1ccc(F)cc1)c1ccc(OC(F)(F)F)cc1 (stereo partly drawn) [compound 19] | > 20 | – | 58.4 | 32-64 fold | –
C[C@]12CCC3C(CN(CCCF)C4CC(=O)CC[C@]34C)C1CCC2C(=O)NC(c1ccc(OC(F)(F)F)cc1)c1ccc(OC(F)(F)F)cc1 (stereo partly drawn) [compound 41] | – | – | > 100 | – | MIC Alone (Mm) (Mm): > 20 µM; Fold ∆ of BDQ MIC, Mm (Mm (BAA-535)): 5 fold
C[C@]12CCC(O)CC1NCC1C2CC[C@]2(C)C(C(=O)NC(c3ccc(F)cc3)c3ccc(OC(F)(F)F)cc3)CCC12 (stereo partly drawn) [compound 21] | > 20 | – | – | > 32 fold | –
C[C@]12CCC3C(CNC4=CC(=O)CC[C@@]43C)C1CCC2C(=O)NC(c1ccc(OC(F)(F)F)cc1)c1ccc(OC(F)(F)F)cc1 (stereo partly drawn) [compound 28] | > 20 | 12.8 | – | > 32 fold | –
C[C@]12CCC3C(CNC4=CC(=O)CC[C@@]43C)C1CCC2C(=O)NC(c1ccc(C(F)(F)F)cc1)c1ccc(C(F)(F)F)cc1 (stereo partly drawn) [compound 25] | 20 | – | 75.7 | 8 fold | –
C[C@]12CCC3C(CN(CCC(F)(F)F)C4=CC(=O)CC[C@@]43C)C1CCC2C(=O)Nc1cc(C(F)(F)F)ccc1C(F)(F)F (stereo partly drawn) [compound 9] | – | – | > 100 | – | MIC Alone (Mm) (Mm): > 20 µM; Fold ∆ of BDQ MIC, Mm (Mm (BAA-535)): 4 fold
C[C@]12CCC3C(CN(CCC(F)(F)F)C4CC(=O)CC[C@]34C)C1CCC2C(=O)NC(c1ccc(OC(F)(F)F)cc1)c1ccc(OC(F)(F)F)cc1 (stereo partly drawn) [compound 42] | – | – | > 100 | – | MIC Alone (Mm) (Mm): > 20 µM; Fold ∆ of BDQ MIC, Mm (Mm (BAA-535)): 1 fold

SMILES | Mtb MIC Alone (Mtb) [µM] | IC50 (THP-1 cells) [µM] | IC50 (HepG2 cells) [µM] | Fold ∆ of BDQ MIC, Mtb (Mtb (CDC1551)) | also measured
C[C@]12CCC(=O)CC1NCC1C2CC[C@]2(C)C(C(=O)NC(c3ccc(F)cc3)c3ccc(C(F)(F)F)cc3)CCC12 (stereo partly drawn) [compound 17] | 20 | 15.6 | 10.1 | – | –
C[C@]12CCC(=O)CC1NCC1C2CC[C@]2(C)C(C(=O)NC34CC5CC(CC(C5)C3)C4)CCC12 (stereo partly drawn) [compound 11] | > 80 | – | 89.3 | – | Fold ∆ of BDQ MIC, Mm (Mm (BAA-535)): 6 fold
C[C@]12CCC3C(CNC4=CC(=O)CC[C@@]43C)C1CCC2C(=O)NC(c1ccc(F)cc1)c1ccc(F)cc1 (stereo partly drawn) [compound 12] | 31 | 24.2 | 31.4 | 32 fold | Fold ∆ of BDQ MIC, Mm (Mm (BAA-535)): 7 fold
C[C@]12CCC3C(CNC4=CC(=O)CC[C@@]43C)C1CCC2C(=O)NC(c1ccncc1)c1ccc(F)cc1 (stereo partly drawn) [compound 18] | 15 | – | > 100 | 4 fold | –
CCCN1CC2C3CCC(C(=O)NC(c4ccc(F)cc4)c4ccc(F)cc4)[C@@]3(C)CCC2[C@@]2(C)CCC(=O)C=C12 (stereo partly drawn) [compound 13] | > 20 | – | > 100 | 128 fold | –
C[C@]12CCC3C(CN(CC4CC4)C4CC(=O)CC[C@]34C)C1CCC2C(=O)NC(c1ccc(OC(F)(F)F)cc1)c1ccc(OC(F)(F)F)cc1 (stereo partly drawn) [compound 38] | 80 | 10 | – | – | –
CC12CCC(=O)CC1CCC1C2CCC2(C)C(C(=O)NC(c3ccc(OC(F)(F)F)cc3)c3ccc(OC(F)(F)F)cc3)CCC12 (stereo not drawn) [compound 34] | > 80 | – | > 100 | 1 fold | –
CN(C)CCN1CC2C3CCC(C(=O)NC(c4ccc(OC(F)(F)F)cc4)c4ccc(OC(F)(F)F)cc4)[C@@]3(C)CCC2[C@@]2(C)CCC(=O)CC12 (stereo partly drawn) [compound 37] | 5 | 4.1 | – | – | –
CCCN1CC2C3CCC(C(=O)Nc4cc(C(C)(C)C)ccc4C(C)(C)C)[C@@]3(C)CCC2[C@@]2(C)CCC(=O)CC12 (stereo partly drawn) [compound 4] | 20 | 73 | – | – | –
CC(C)(C)c1ccc(C(C)(C)C)c(NC(=O)C2CCC3C4CNC5CC(=O)CC[C@]5(C)C4CC[C@]23C)c1 (stereo partly drawn) [compound 3] | 10 | 14.2 | 16.9 | – | –
CCCN1CC2C3CCC(C(=O)NC(c4ccc(C(F)(F)F)cc4)c4ccc(C(F)(F)F)cc4)[C@@]3(C)CCC2[C@@]2(C)CCC(=O)CC12 (stereo partly drawn) [compound 27] | 20 | > 100 | – | 2 fold | –
C[C@]12CCC3C(CNC4=CC(=O)CC[C@@]43C)C1CCC2C(=O)NC(c1ccc(F)cc1)c1ccc(C(F)(F)F)cc1 (stereo partly drawn) [compound 15] | > 20 | – | 26 | 64 fold | –
C[C@]12CCC(N)CC1NCC1C2CC[C@]2(C)C(C(=O)NC(c3ccc(OC(F)(F)F)cc3)c3ccc(OC(F)(F)F)cc3)CCC12 (stereo partly drawn) [compound 30] | 80 | – | 2.7 | – | –
CCCN1CC2C3CCC(C(=O)NC(c4ccc(F)cc4)c4ccc(C(F)(F)F)cc4)[C@@]3(C)CCC2[C@@]2(C)CCC(=O)C=C12 (stereo partly drawn) [compound 16] | > 20 | – | – | 64 fold | inhibition of 3β-Hsd activity [1]: greater than 50%
CCCN1CC2C3CCC(C(=O)Nc4cc(C(F)(F)F)ccc4C(C)(C)C)[C@@]3(C)CCC2[C@@]2(C)CCC(=O)C=C12 (stereo partly drawn) [compound 6] | – | – | 71 | – | MIC Alone (Mm) (Mm): > 20 µM; Fold ∆ of BDQ MIC, Mm (Mm (BAA-535)): 3 fold
C[C@]12CCC3C(CN(CCCF)C4=CC(=O)CC[C@@]43C)C1CCC2C(=O)Nc1cc(C(F)(F)F)ccc1C(F)(F)F (stereo partly drawn) [compound 8] | – | – | > 100 | – | MIC Alone (Mm) (Mm): > 20 µM; Fold ∆ of BDQ MIC, Mm (Mm (BAA-535)): 7 fold
C[C@]12CCC(=O)CC1NCC1C2CC[C@]2(C)C(C(=O)NC(c3ccc(OC(F)F)cc3)c3ccc(OC(F)F)cc3)CCC12 (stereo partly drawn) [compound 23] | 15 | 3.3 | – | – | –
C#CCCC(=O)Nc1ccc(C(=O)c2ccc(NC(=O)C3CCC4C5CNC6=CC(=O)CC[C@]6(C)C5CC[C@]34C)cc2)cc1 (stereo partly drawn) [compound 44, 17β-[N-[4-(4-Aminobenzoyl)phenyl]pent-4-ynamide]-6-azaandrost-4-en-3-one] | – | – | – | – | BDQ potentiation activity in Mm (Mm (BAA-535); photoaffinity probes): showed BDQ potentiation activity
C[C@]12CCC(=O)CC1NCC1C2CC[C@]2(C)C(C(=O)Nc3cc(Br)ccc3Br)CCC12 (stereo partly drawn) [compound 10] | 30 | – | 7.6 | – | –
CC(C)(C)c1ccc(C(C)(C)C)c(NC(=O)C2CCC3C4CNC5=CC(=O)CC[C@]5(C)C4CC[C@]23C)c1 (stereo partly drawn) [compound 1] | 40 | 17.7 | – | 16 fold | –
